Our source for the melting point values is US20040049086A1, “Diphenol and process for producing the same” (priority 2001, published 2004).

For `Cc1cc(C2CCC(c3ccc(O)cc3)CC2)ccc1O` (stereo not drawn) [Example 1 of Example B, 4-(4′-(4″-hydroxyphenyl)cyclohexyl)-2-methyl-1-hydroxybenzene], the melting point is 159 °C.

The compound `Cc1cc(-c2ccc(-c3ccc(O)cc3)cc2)ccc1O` [Example 1 of Example C, 4-hydroxy-3″-methyl-4″-hydroxy-p-terphenyl] registered a melting point of 251.4 °C.

Take `Cc1cc(C2=CCC(c3ccc(O)cc3)CC2)ccc1O` (stereo not drawn) [Example 2 of Example A, 1-(3-methyl-4-hydroxyphenyl)-4-(4-hydroxyphenyl)-1-cyclohexene]: the melting point was 201 °C.

In turn, `Cc1cc(-c2ccc(-c3ccc(O)cc3)cc2)cc(C)c1O` [Example 2 of Example C, 4-hydroxy-3″,5″-dimethyl-4″-hydroxy-p-terphenyl] yielded a melting point of 231 °C.

Take `CC(C)(C)c1cc(C2=CCC(c3ccc(O)cc3)CC2)ccc1O` (stereo not drawn) [Example 4 of Example A, 1-(3-t-butyl-4-hydroxyphenyl)-4-(4-hydroxyphenyl)-1-cyclohexene]: the melting point amounted to 188 °C.

`Cc1cc(C2=CCC(c3ccc(O)cc3)CC2)cc(C)c1O` (stereo not drawn) [Example 5 of Example A, 1-(3,5-dimethyl-4-hydroxyphenyl)-4-(4-hydroxyphenyl)-1-cyclohexene] displayed a melting point of 224 °C.
